Several values for one entry are separate records, joined by “and”; a condition that tells them apart may be missing. Equal entries are not always repeated. Activity calls are given as the source filed them. How the calls were made is not given here.

The values that follow come from PubChem BioAssay AID1745844 (Carcinogenic Potency Database (CPDB), 2022).

The series relates to rodent lifetime carcinogenesis bioassay, tumor incidence TD50. Put plainly: chronic cancer bioassays in animals – CPDB, compiled studies (AID 1745844).

Take `O=c1ccc2ccccc2o1`: the TD50 (usually the 50% point of the dose-response relation for the toxic effect studied) runs as follows: (hamster, strain Syrian Golden, females, in feed, site: any site (literature study), lesion: several types, types named in the paper, dosed 95 weeks, study length 104 weeks) 5520 mg/kg/day (inactive); (hamster, strain Syrian Golden, males, in feed, site: any site (literature study), lesion: several types, types named in the paper, dosed 104 weeks, study length 104 weeks) 603 mg/kg/day (inactive); (mouse, strain B6C3F1, females, by gavage, site: any site (literature study), lesion: several types, types named in the paper, dosed 103 weeks, study length 104 weeks) 198 mg/kg/day; (mouse, strain B6C3F1, females, by gavage, site: forestomach, lesion: squamous-cell carcinoma + squamous-cell papilloma, dosed 103 weeks, study length 104 weeks) 42000 mg/kg/day; (mouse, strain B6C3F1, females, by gavage, site: forestomach, lesion: squamous-cell papilloma, dosed 103 weeks, study length 104 weeks) 12200 mg/kg/day; (mouse, strain B6C3F1, females, by gavage, site: liver + lung, lesion: hepatocellular adenoma + hepatocellular carcinoma + alveolar/bronchiolar adenoma + alveolar/bronchiolar carcinoma, dosed 103 weeks, study length 104 weeks) 85.5 mg/kg/day. The TD50 was 65.7 mg/kg/day (mouse, strain B6C3F1, females, by gavage, site: liver, lesion: hepatocellular adenoma + hepatoblastoma + hepatocellular carcinoma, dosed 103 weeks, study length 104 weeks); 65.7 mg/kg/day (mouse, strain B6C3F1, females, by gavage, site: liver, lesion: hepatocellular adenoma + hepatocellular carcinoma, dosed 103 weeks, study length 104 weeks); 72.8 mg/kg/day (mouse, strain B6C3F1, females, by gavage, site: liver, lesion: hepatocellular adenoma, dosed 103 weeks, study length 104 weeks); 135 mg/kg/day (mouse, strain B6C3F1, females, by gavage, site: lung, lesion: alveolar/bronchiolar adenoma + alveolar/bronchiolar carcinoma, dosed 103 weeks, study length 104 weeks); 179 mg/kg/day (mouse, strain B6C3F1, females, by gavage, site: lung, lesion: alveolar/bronchiolar adenoma, dosed 103 weeks, study length 104 weeks); 825 mg/kg/day (mouse, strain B6C3F1, females, by gavage, site: lung, lesion: alveolar/bronchiolar carcinoma, dosed 103 weeks, study length 104 weeks). For the same compound, the TD50 by setting is: (mouse, strain B6C3F1, males, by gavage, site: all sites, lesion: histiocytic sarcoma + malignant lymphoma, histiocytic type + malignant lymphoma, mixed type + malignant lymphoma, lymphocytic, dosed 103 weeks, study length 104 weeks) 600 mg/kg/day; (mouse, strain B6C3F1, males, by gavage, site: any site (literature study), lesion: several types, types named in the paper, dosed 103 weeks, study length 104 weeks) 461 mg/kg/day; (mouse, strain B6C3F1, males, by gavage, site: forestomach, lesion: squamous-cell carcinoma + squamous-cell papilloma, dosed 103 weeks, study length 104 weeks) 152 mg/kg/day; (mouse, strain B6C3F1, males, by gavage, site: forestomach, lesion: squamous-cell papilloma, dosed 103 weeks, study length 104 weeks) 179 mg/kg/day; (mouse, strain B6C3F1, males, by gavage, site: liver, lesion: hepatoblastoma, dosed 103 weeks, study length 104 weeks) 632 mg/kg/day; (mouse, strain B6C3F1, males, by gavage, site: lung, lesion: alveolar/bronchiolar adenoma + alveolar/bronchiolar carcinoma, dosed 103 weeks, study length 104 weeks) 241 mg/kg/day. In addition, the TD50 was 265 mg/kg/day (mouse, strain B6C3F1, males, by gavage, site: lung, lesion: alveolar/bronchiolar adenoma, dosed 103 weeks, study length 104 weeks); 1310 mg/kg/day (mouse, strain B6C3F1, males, by gavage, site: pancreatic islets, lesion: islet-cell adenoma, dosed 103 weeks, study length 104 weeks); 176 mg/kg/day (inactive) (mouse, strain Charles River CD1, females, in feed, site: liver, lesion: several types, types named in the paper, dosed 109 weeks, study length 109 weeks); 3140 mg/kg/day (inactive) (mouse, strain Charles River CD1, females, in feed, site: lung, lesion: adenocarcinoma, dosed 109 weeks, study length 109 weeks); 4500 mg/kg/day (inactive) (mouse, strain Charles River CD1, females, in feed, site: lung, lesion: adenoma, dosed 109 weeks, study length 109 weeks); 1020 mg/kg/day (inactive) (mouse, strain Charles River CD1, males, in feed, site: lung, lesion: adenocarcinoma, dosed 101 weeks, study length 101 weeks). Moreover, the TD50 (rat, strain Fischer 344, females, by gavage, site: any site (literature study), lesion: several types, types named in the paper, dosed 103 weeks, study length 104 weeks) is 456 mg/kg/day; the TD50 (rat, strain Fischer 344, females, by gavage, site: kidney, lesion: tubule adenoma, dosed 103 weeks, study length 104 weeks) is 1410 mg/kg/day and 930 mg/kg/day; the TD50 (rat, strain Fischer 344, males, by gavage, site: any site (literature study), lesion: several types, types named in the paper, dosed 39 weeks, study length 104 weeks) came to 210 mg/kg/day; the TD50 (rat, strain Fischer 344, males, by gavage, site: any site (literature study), lesion: several types, types named in the paper, dosed 65 weeks, study length 104 weeks) worked out at 12.2 mg/kg/day; the TD50 (rat, strain Fischer 344, males, by gavage, site: any site (literature study), lesion: several types, types named in the paper, dosed 101 weeks, study length 104 weeks) stood at 12 mg/kg/day; the TD50 (rat, strain Fischer 344, males, by gavage, site: forestomach, lesion: squamous-cell papilloma, dosed 101 weeks, study length 104 weeks) was 142 mg/kg/day. Further, the TD50 is 13.9 mg/kg/day (rat, strain Fischer 344, males, by gavage, site: kidney, lesion: adenoma + tubule adenoma + tubule carcinoma, dosed 101 weeks, study length 104 weeks); 226 mg/kg/day and 13.9 mg/kg/day (rat, strain Fischer 344, males, by gavage, site: kidney, lesion: adenoma + tubule adenoma, dosed 101 weeks, study length 104 weeks); 67.6 mg/kg/day (rat, strain Fischer 344, males, by gavage, site: kidney, lesion: tubule adenoma, dosed 65 weeks, study length 104 weeks); 151 mg/kg/day (rat, strain Fischer 344, males, by gavage, site: kidney, lesion: tubule carcinoma, dosed 101 weeks, study length 104 weeks); 171 mg/kg/day (rat, strain Fischer 344, males, by gavage, site: liver, lesion: hepatocellular adenoma + hepatoblastoma + hepatocellular carcinoma, dosed 65 weeks, study length 104 weeks); 19.7 mg/kg/day (rat, strain Fischer 344, males, by gavage, site: pituitary gland, lesion: pars distalis adenoma, dosed 101 weeks, study length 104 weeks). The TD50 is, setting by setting: (rat, strain Fischer 344, males, by gavage, site: testis, lesion: interstitial-cell adenoma, dosed 39 weeks, study length 104 weeks) 19.8 mg/kg/day; (rat, strain Fischer 344, males, by gavage, site: testis, lesion: interstitial-cell adenoma, dosed 65 weeks, study length 104 weeks) 8.22 mg/kg/day; (rat, strain Fischer 344, males, by gavage, site: testis, lesion: interstitial-cell adenoma, dosed 101 weeks, study length 104 weeks) 3.62 mg/kg/day; (rat, strain Sprague-Dawley, females, in feed, site: liver, lesion: cholangiocarcinoma, dosed 110 weeks, study length 110 weeks) 767 mg/kg/day; (rat, strain Sprague-Dawley, females, in feed, site: liver, lesion: several types, types named in the paper, dosed 110 weeks, study length 110 weeks) 1440 mg/kg/day; (rat, strain Sprague-Dawley, males, in feed, site: liver, lesion: cholangiocarcinoma, dosed 104 weeks, study length 104 weeks) 302 mg/kg/day. Under “rat, strain Sprague-Dawley, males, in feed, site: liver, lesion: several types, types named in the paper, dosed 104 weeks, study length 104 weeks”, the TD50 was 365 mg/kg/day. The carcinogen call reads like this: (hamster, strain Syrian Golden, females, in feed, site: liver, lesion: one or several types, types not named, dosed 95 weeks, study length 104 weeks) “negative (inactive)”; (hamster, strain Syrian Golden, males, in feed, site: liver, lesion: one or several types, types not named, dosed 104 weeks, study length 104 weeks) “negative (inactive)”; (mouse, strain Charles River CD1, males, in feed, site: liver, lesion: several types, types named in the paper, dosed 101 weeks, study length 101 weeks) “negative (inactive)”; (mouse, strain Charles River CD1, males, in feed, site: lung, lesion: adenoma, dosed 101 weeks, study length 101 weeks) “negative (inactive)”.
As to `CN(C)N=Nc1ccccc1`, the TD50 was 2.31 mg/kg/day (rat, strain BD, both sexes, by gavage, site: any site (literature study), lesion: malignant tumor, dosed 104 weeks, study length 104 weeks) and 5.81 mg/kg/day (rat, strain BD, both sexes, by gavage, site: brain, lesion: several types, types named in the paper, dosed 104 weeks, study length 104 weeks).
As for `Cc1ccc(Cl)cc1N`, the TD50 (mouse, strain B6C3F1, females, in feed, site: all sites + liver, lesion: hemangiosarcoma + hepatocellular adenoma + hepatocellular carcinoma, dosed 78 weeks, study length 91 weeks) stood at 143 mg/kg/day; the TD50 (mouse, strain B6C3F1, females, in feed, site: all sites, lesion: hemangiosarcoma, dosed 78 weeks, study length 91 weeks) is 373 mg/kg/day; the TD50 (mouse, strain B6C3F1, females, in feed, site: any site (literature study), lesion: several types, types named in the paper, dosed 78 weeks, study length 91 weeks) worked out at 164 mg/kg/day; the TD50 (mouse, strain B6C3F1, females, in feed, site: liver, lesion: hepatocellular adenoma + hepatocellular carcinoma + neoplastic nodule, dosed 78 weeks, study length 91 weeks) stood at 180 mg/kg/day; the TD50 (mouse, strain B6C3F1, females, in feed, site: liver, lesion: hepatocellular adenoma + hepatocellular carcinoma, dosed 78 weeks, study length 91 weeks) is 180 mg/kg/day; the TD50 (mouse, strain B6C3F1, females, in feed, site: liver, lesion: hepatocellular carcinoma, dosed 78 weeks, study length 91 weeks) is 217 mg/kg/day. Also, the TD50 by setting is: (mouse, strain B6C3F1, females, in feed, site: lung, lesion: alveolar/bronchiolar adenoma + alveolar/bronchiolar carcinoma, dosed 78 weeks, study length 91 weeks) 7480 mg/kg/day; (mouse, strain B6C3F1, males, in feed, site: all sites + liver, lesion: hemangiosarcoma + hepatocellular adenoma + hepatocellular carcinoma, dosed 78 weeks, study length 91 weeks) 134 mg/kg/day; (mouse, strain B6C3F1, males, in feed, site: all sites, lesion: hemangiosarcoma, dosed 78 weeks, study length 91 weeks) 213 mg/kg/day; (mouse, strain B6C3F1, males, in feed, site: any site (literature study), lesion: several types, types named in the paper, dosed 78 weeks, study length 91 weeks) 132 mg/kg/day; (mouse, strain B6C3F1, males, in feed, site: liver, lesion: hepatocellular adenoma + hepatocellular carcinoma + neoplastic nodule, dosed 78 weeks, study length 91 weeks) 249 mg/kg/day; (mouse, strain B6C3F1, males, in feed, site: liver, lesion: hepatocellular adenoma + hepatocellular carcinoma, dosed 78 weeks, study length 91 weeks) 249 mg/kg/day. The TD50 is, setting by setting: (mouse, strain B6C3F1, males, in feed, site: liver, lesion: hepatocellular carcinoma, dosed 78 weeks, study length 91 weeks) 271 mg/kg/day; (rat, strain Fischer 344, males, in feed, site: adrenal gland, lesion: pheochromocytoma, dosed 78 weeks, study length 103 weeks) 714 mg/kg/day (inactive); (rat, strain Fischer 344, males, in feed, site: any site (literature study), lesion: several types, types named in the paper, dosed 78 weeks, study length 103 weeks) 1020 mg/kg/day; (rat, strain Fischer 344, males, in feed, site: liver, lesion: hepatocellular adenoma + hepatocellular carcinoma + neoplastic nodule, dosed 78 weeks, study length 103 weeks) 3340 mg/kg/day. In addition, the carcinogen call (rat, strain Fischer 344, females, in feed, site: any site (literature study), lesion: several types, types named in the paper, dosed 78 weeks, study length 103 weeks) is “negative (inactive)”.
